# In patent publication US20220030868A1, “FUNGICIDAL HALOMETHYL KETONES AND HYDRATES” (FMC CORPORATION, priority 2018, published 2022):
# Marks after values point to notes of the source that are not given here.
# How the values were obtained:
# [1] = test system: Puccinia recondita f. sp. tritici; experiment: Test B: test suspension sprayed on wheat seedlings one day before inoculation with Puccinia recondita f. sp. tritici spores (wheat leaf rust), disease rating; assay type: in vivo; details: 100 = 100% disease control, 0 = no control; for pest or weed control at 10 ppm / Test B rating (disease control): 10 ppm test suspension; for pest or weed control at 50 ppm: 50 ppm test suspension
# How it was run: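 Wheat seedlings were sprayed to run-off with compound suspended in 50/50 acetone/water containing 250 ppm PEG400, then inoculated with P. recondita f. sp. tritici spores the next day. Plants were held 24 h in saturated air at 20 °C, then 6 days in a growth chamber at 20 °C. Disease control was rated 0–100% relative to controls, with some entries run at 50 or 10 ppm.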
# Phakopsora pachyrhizi = experiment: Test A: test suspension sprayed on soybean seedlings one day before inoculation with Phakopsora pachyrhizi spores (Asian soybean rust), visual disease rating; assay type: in vivo; details: 100 = 100% disease control, 0 = no control; for pest or weed control at 10 ppm / Test A rating (disease control): 10 ppm test suspension; for pest or weed control at 50 ppm: 50 ppm test suspension
# How it was run: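 Compound dissolved in acetone (3% of final volume), then suspended at the stated ppm in 50/50 acetone/water with 250 ppm PEG400 surfactant; sprayed to run-off on soybean seedlings, inoculated with P. pachyrhizi spores next day. Held saturated at 22° C for 24 h, then 8 days at 22° C; visual rating as % disease control versus controls.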
# Uncinula necator = experiment: Test C: test suspension sprayed on grape seedlings one day before inoculation with Uncinula necator spores (grape powdery mildew), disease rating; assay type: in vivo; details: 100 = 100% disease control; for pest or weed control at 50 ppm / Test C rating (disease control): 50 ppm test suspension
# Excerpt: General protocol for preparing test suspensions for Tests A-C: the test compounds were first dissolved in acetone in an amount equal to 3% of the final volume and then suspended at the desired concentration (in ppm) in acetone and purified water (50/50 mix by volume) containing 250 ppm of the surfactant PEG400 (polyhydric alcohol esters). The resulting test suspensions were then used in Tests A-C. The test solution was sprayed to the point of run-off on grape seedlings. The following day the seedlings were inoculated with a spore suspension of Uncinula necator (the causal agent of grape powdery mildew) and incubated in a growth chamber at 20° C. for 12 days, after which time disease ratings were made. Results for Tests A-C are given in Table A. In the Table, a rating of 100 indicates 100% disease control and a rating of 0 indicates no disease control (relative to the controls). An asterisk “*” or a double asterisk “**” next to the rating value indicates a 50 ppm or 10 ppm test suspension was used, respectively. A dash (-) indicates the compound was not tested.
SMILES,pest or weed control at 10 ppm [1],pest or weed control at 10 ppm (Phakopsora pachyrhizi; Phakopsora pachyrhizi),pest or weed control at 50 ppm (Uncinula necator; Erysiphe necator),also measured
"CCO/C(=C\Oc1ccc(Cn2cc(C(=O)OCc3ccccc3)cn2)cc1)C(F)(F)F [Compound 186, phenylmethyl 1-[[4-[[(1Z)-2-ethoxy-3,3,3-trifluoro-1-propen-1-yl]oxy]phenyl]methyl]-1H-pyrazole-4-carboxylate]",0%,100%,100%,melting point: 63 to 67 °C
"COCCOC(=O)c1cnn(Cc2ccc(OCC3(C(F)(F)F)OCCO3)cc2)c1 [Compound 162, 2-methoxyethyl 1-[[4-[[2-(trifluoromethyl)-1,3-dioxolan-2-yl]methoxy]phenyl]methyl]-1H-pyrazole-4-carboxylate]",0%,100%,100%,–
"CCOC(=O)c1cnn(Cc2ccc(O/C=C(\OCC)C(F)(F)F)cc2)c1 [Compound 64, ethyl 1-[[4-[[(1Z)-2-ethoxy-3,3,3-trifluoro-1-propen-1-yl]oxy]phenyl]methyl]-1H-pyrazole-4-carboxylate]",–,–,–,"pest or weed control at 250 ppm ([1]; 250 ppm test suspension): 99%; pest or weed control at 250 ppm (Phakopsora pachyrhizi; Phakopsora pachyrhizi, 250 ppm test suspension): 100%; pest or weed control at 10 ppm (Uncinula necator; Erysiphe necator, 10 ppm test suspension (double asterisk)): 100%"
"O=C(NCC1CC1)c1csc(Cc2ccc(OCC3(C(F)(F)F)OCCO3)cc2)n1 [Compound 71, N-(cyclopropylmethyl)-2-[[4-[[2-(trifluoromethyl)-1,3-dioxolan-2-yl]methoxy]phenyl]-methyl]thiazole-4-carboxamide]",96%,100%,–,melting point: 88 to 92 °C
CCOC(=O)c1cnn(Cc2ccc(OCC3(C(F)(F)F)OCCO3)cn2)c1 [compound 124],–,–,100%,pest or weed control at 50 ppm [1]: 0%; pest or weed control at 50 ppm (Phakopsora pachyrhizi; Phakopsora pachyrhizi): 100%
CCO/C(=C\Oc1ccc(Cn2cc(C(=O)OCC(C)=O)cn2)cc1)C(F)(F)F [compound 216],–,–,–,Test B rating (disease control) [1]: 0%; Test A rating (disease control) (Phakopsora pachyrhizi): 100%; Test C rating (disease control) (Uncinula necator): 100* %
"CCOC(=O)c1cnn(CCc2ccc(O/C=C(\OCC)C(F)(F)F)cc2)c1 [Compound 132, ethyl 1-[2-[4-[[(1Z)-2-ethoxy-3,3,3-trifluoro-1-propen-1-yl]oxy]phenyl]ethyl]-1H-pyrazole-4-carboxylate]",0%,100%,98%,–
"O=C(OCC1CC1)c1cnn(Cc2ccc(OCC3(C(F)(F)F)OCCO3)cc2)c1 [Compound 127, cyclopropylmethyl 1-[[4-[[2-(trifluoromethyl)-1,3-dioxolan-2-yl]methoxy]phenyl]methyl]-1H-pyrazole-4-carboxylate]",0%,100%,100%,–
CCCOC(=O)c1cnn(Cc2ccc(O/C=C(\OCC)C(F)(F)F)cc2)c1 [compound 217],–,–,–,Test B rating (disease control) [1]: 0%; Test A rating (disease control) (Phakopsora pachyrhizi): 100%; Test C rating (disease control) (Uncinula necator): 100* %
"CCOC(=O)c1cnn(Cc2ccc(OCC3(C(F)(F)F)OCCO3)cc2)c1 [Compound 32, ethyl 1-[[4-[[2-(trifluoromethyl)-1,3-dioxolan-2-yl]methoxy]phenyl]methyl]-1H-pyrazole-4-carboxylate]",–,–,100%,pest or weed control at 50 ppm [1]: 68%; pest or weed control at 50 ppm (Phakopsora pachyrhizi; Phakopsora pachyrhizi): 100%
CCO/C(=C\Oc1ccc(Cn2cc(C(=O)OC)cn2)cc1)C(F)(F)F [compound 138],–,–,–,Test B rating (disease control) [1]: 0%; Test A rating (disease control) (Phakopsora pachyrhizi): 100%; Test C rating (disease control) (Uncinula necator): 100* %
CCO/C(=C\Oc1ccc(Cn2cc(C(=O)OCCC#N)cn2)cc1)C(F)(F)F [compound 245],–,–,–,Test B rating (disease control) [1]: 0%; Test A rating (disease control) (Phakopsora pachyrhizi): 100%; Test C rating (disease control) (Uncinula necator): 98* %
"CCOC(=O)c1cnn(Cc2ccc(O/C=C(\OCC)C(F)(F)F)c(F)c2)c1 [Compound 262, ethyl 1-[[4-[[(1Z)-2-ethoxy-3,3,3-trifluoro-1-propen-1-yl]oxy]-3-fluorophenyl]methyl]-1H-pyrazole-4-carboxylate]",0%,100%,99%,–
"CCO/C(=C\Oc1ccc(Cn2cc(C(=O)OCCCCl)cn2)cc1)C(F)(F)F [Compound 221, 3-chloropropyl 1-[[4-[[(1Z)-2-ethoxy-3,3,3-trifluoro-1-propen-1-yl]oxy]phenyl]methyl]-1H-pyrazole-4-carboxylate]",0%,100%,100%,–
